SMILES strings stand for the structures.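 Grown in 96-well plates, cells were treated for 48 hours with each compound at five concentrations. Insufficient inhibition: endpoint recorded as highest concentration tested. GI50 marks 50% less growth. The concentration for full growth arrest is given as TGI.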 Bounds are passed on as bounds.

Some test systems named below: 786-0 renal; TK-10 renal; PC-3 prostate; CAKI-1 renal; NCI-H460 lung; OVCAR-4 ovarian; SK-MEL-28 melanoma; NCI-H23 lung; A498 renal; CCRF-CEM leukemia.
Common to all, as to assay: growth of human tumour cells (NCI), 48 h

As for `COc1ccc2c(c1)CC[C@@H]1[C@@H]2CC[C@@]2(C)[C@H]1CC1(CCCCC1)[C@@H]2O`, the GI50 in the experiment on 786-0 renal was 3.81 µM; in the experiment with TK-10 renal it was 12.2 µM; in the experiment on PC-3 prostate it was 7.93 µM; in the experiment on CAKI-1 renal, 18.2 µM; in the experiment with NCI-H460 lung, 3.82 µM; in the experiment on OVCAR-4 ovarian it was 13.9 µM. The figures for the GI50 with SK-MEL-28 melanoma, in the experiment on NCI-H23 lung and with A498 renal were 14.9 µM, 18.6 µM and 16.7 µM, respectively. Besides, the TGI in the experiment on 786-0 renal came out at 14.7 µM; with TK-10 renal it was 31.8 µM; with PC-3 prostate, 21.7 µM; in the experiment on CAKI-1 renal it was 33.9 µM; in the experiment with NCI-H460 lung, 15.4 µM; with OVCAR-4 ovarian, 28.7 µM. Also, the TGI in the experiment on SK-MEL-28 melanoma is 29.5 µM; in the experiment on NCI-H23 lung, 35.9 µM; with A498 renal it was 32 µM.
In the case of `CN1CCN(c2ccc3c4c(cccc24)C(=O)N(CCN2CCN(CCCN4CCN(CCN5C(=O)c6cccc7c(N8CCN(C)CC8)ccc(c67)C5=O)CC4)CC2)C3=O)CC1`, the GI50 with 786-0 renal is 1.79 µM; with TK-10 renal it was 9.38 µM; with PC-3 prostate, 5.14 µM; in the experiment on CAKI-1 renal it was 8.21 µM; with NCI-H460 lung, 5.54 µM; in the experiment on OVCAR-4 ovarian, 8.01 µM. For the same compound, the GI50 with SK-MEL-28 melanoma is 9.37 µM; with NCI-H23 lung, 7.08 µM; with A498 renal, 9.79 µM. Further, the TGI came out at 6.87 µM with 786-0 renal; 21.1 µM in the experiment with TK-10 renal; 11.6 µM in the experiment on PC-3 prostate; 16.8 µM in the experiment on CAKI-1 renal; 33.5 µM in the experiment on NCI-H460 lung; 19.4 µM in the experiment with OVCAR-4 ovarian. The TGI with SK-MEL-28 melanoma was 17.1 µM; with NCI-H23 lung, 13.8 µM; in the experiment with A498 renal it was 17.4 µM.
Turning to `O=S1(=O)CCN(Cc2ccccn2)CC1`, the TGI with 786-0 renal, in the experiment with TK-10 renal, in the experiment on PC-3 prostate, in the experiment on CAKI-1 renal, in the experiment with NCI-H460 lung and in the experiment on OVCAR-4 ovarian was greater than 100 µM throughout. Besides, the TGI in the experiment with SK-MEL-28 melanoma, with NCI-H23 lung and in the experiment with A498 renal was greater than 100 µM throughout.
With `Brc1ccc([I+]c2ccc(Br)cc2)cc1`, the GI50 with 786-0 renal was 1.97 µM; in the experiment on TK-10 renal it was 1.97 µM; in the experiment on PC-3 prostate it was 1.25 µM; in the experiment with CAKI-1 renal, 1.9 µM; in the experiment on NCI-H460 lung, 0.866 µM; in the experiment on OVCAR-4 ovarian, 1.5 µM. For the same compound, the GI50 in the experiment with SK-MEL-28 melanoma is 1.43 µM; in the experiment with NCI-H23 lung, 1.11 µM; in the experiment on A498 renal, 1.97 µM. In addition, the TGI in the experiment on 786-0 renal stood at 11.2 µM; with TK-10 renal it was 13.3 µM; with PC-3 prostate, 3.8 µM; in the experiment on CAKI-1 renal it was 8.98 µM; with NCI-H460 lung it was 4.23 µM; in the experiment with OVCAR-4 ovarian it was 10.6 µM. The figures for the TGI with SK-MEL-28 melanoma, in the experiment on NCI-H23 lung and with A498 renal were 3.79 µM, 4.2 µM and 10.7 µM, respectively.
In the case of `O=C1/C(=C/c2ccccc2Cl)N=C(c2ccccc2)N1Cc1ccco1`, the GI50 with 786-0 renal is 34.7 µM; in the experiment on TK-10 renal it was greater than 100 µM; with PC-3 prostate, 39 µM; in the experiment on CAKI-1 renal, 94.3 µM; in the experiment on NCI-H460 lung it was 42.6 µM; with CCRF-CEM leukemia it was 5.35 µM. The GI50 with SK-MEL-28 melanoma is 44.7 µM; with NCI-H23 lung, 40.5 µM; with A498 renal, 24.3 µM. Further, the TGI in the experiment on 786-0 renal, in the experiment with TK-10 renal, in the experiment on PC-3 prostate, in the experiment with CAKI-1 renal, in the experiment with NCI-H460 lung and in the experiment on CCRF-CEM leukemia was greater than 100 µM throughout. The figures for the TGI with SK-MEL-28 melanoma, in the experiment with NCI-H23 lung and with A498 renal were greater than 100 µM, greater than 100 µM and 76.6 µM, respectively.
On to `CC(=O)/C=C/C1=C(c2cc3ccccc3s2)c2ccccc2CC1`, for which the GI50 with 786-0 renal is 33.2 µM; with TK-10 renal, 61.1 µM; in the experiment with PC-3 prostate it was 18.4 µM; with CAKI-1 renal, 51.1 µM; with OVCAR-4 ovarian it was 25.9 µM; in the experiment with SK-MEL-28 melanoma it was 20.9 µM. The GI50 with A498 renal is 28.9 µM. Moreover, the TGI in the experiment on 786-0 renal is greater than 100 µM; with TK-10 renal, greater than 100 µM; with PC-3 prostate it was greater than 100 µM; in the experiment on CAKI-1 renal it was greater than 100 µM; in the experiment with OVCAR-4 ovarian it was greater than 100 µM; in the experiment with SK-MEL-28 melanoma, 54.1 µM. This compound displayed a TGI in the experiment on A498 renal of 58.1 µM.
Take `COc1ccc2c3c1C(=O)CCC3CO2` (stereo not drawn): the TGI in the experiment on 786-0 renal, in the experiment on TK-10 renal, with CAKI-1 renal, with NCI-H460 lung, in the experiment on OVCAR-4 ovarian and in the experiment on CCRF-CEM leukemia was greater than 100 µM in each case. For the same compound, the TGI in the experiment on SK-MEL-28 melanoma, with NCI-H23 lung and with A498 renal was greater than 100 µM each time.
On to `CC(=O)N1CC2Nc3ccccc3C2CC1CO` (stereo not drawn), for which the TGI with 786-0 renal, in the experiment with TK-10 renal, with CAKI-1 renal, in the experiment on NCI-H460 lung, in the experiment on OVCAR-4 ovarian and in the experiment on CCRF-CEM leukemia was greater than 100 µM throughout. Moreover, the TGI in the experiment on SK-MEL-28 melanoma, in the experiment on NCI-H23 lung and in the experiment on A498 renal was greater than 100 µM throughout.

Values taken from PubChem BioAssay (NCI).
